From US9096853B2, “Modified siRNA molecules incorporating 5-fluoro-2′-deoxyuridine residues to enhance cytotoxicity” (U.S. Department of Veterans Affairs, priority 2012, dated 2015)
[5FU] = 5-fluorouracil base, with d sugar it is 5-fluoro-2'-deoxyuridine (FdU); d = 2'-deoxy (DNA); r = 2'-OH (RNA)

Assays:
[1] = tested on: human colon cancer RKO cell line; assay: Cell proliferation assay (WST-1) in RKO cells; assay type: cell-based; details: for IC50: 6 hr exposure then 96 hr growth, mean ± S.D., at least 3 experiments
Experimental: RKO cells were plated in 96-well plates at a density of 800 cells/well. On the following day, cells were incubated with ssiRNA/LF2000 complexes for 6 hr, after which time, the growth medium was replaced, and cells were grown for an additional 96 hr. Similarly, RKO cells were treated with FdU (#F0503, Sigma) for 6 hr followed by medium replacement and then allowed to grow for an additional 96 hr. Cell proliferation/viability was quantified by the WST-1 assay (Roche; Indianapolis, Ind.).

[2] = tested on: human colon cancer RKO cell line; assay: Clonogenic assay in RKO cells; assay type: cell-based; details: for IC50: 6 hr exposure, colonies counted after 8 days, mean ± S.D., at least 3 experiments
Experimental: RKO cells were plated in 6-well plates at a density of 600 cells/well. On the following day, cells were transfected with ssiRNA/LF2000 complexes for 6 hr after which time, the growth medium was replaced. Similarly, FdU was added to wells for 6 hr followed by medium replacement. After 8 days, cell colonies were fixed with Trypan blue solution (75% methanol/25% acetic acid/0.25% trypan blue), washed, and air-dried before counting colonies >50 cells.

[3] = tested on: p53, Fas, cleaved PARP, γH2AX, p-ATM; assay: Immunoblot of DNA damage and apoptosis signaling proteins, time course; assay type: cell-based, human; details: RKO cells, ssiRNA 10 nM, 0-72 hr
Experimental: FIG. 5 illustrates time-dependent effects of FdU-containing ssiRNAs on protein expression. RKO cells were transfected with various TS6 ssiRNAs (10 nM). After 6 hr, the medium was replaced, and cells were harvested for immunoblot blot analysis at the following times: before39 transfection (pre) and 0, 24, 48, and 72 hr after transfection. Images shown are representative blots from at least 4 different experiments; and
(§1) Protein concentrations of cell lysates were determined using the DC Protein Assay (Bio-Rad; Hercules, Calif.). Equal amounts of protein (30 μg) from each cell lysate were resolved on SDS-PAGE using the method of Laemmli (Reference 19) and transferred onto 0.45 μm nitrocellulose membranes (Bio-Rad). Membranes were blocked and incubated overnight with primary antibodies at 4° C. The following antibodies were used in the experiments: anti-TS (Clone 4H4B1; Invitrogen), anti-TS (#5449; Cell Signaling; San Francisco, Calif.), anti-p21 Waf1/Cip1 (#2947; Cell Signaling), anti-p53 (#sc-126; Santa Cruz Biotechnology; Santa Cruz, Calif.), anti-PARP (#9542; Cell Signaling), anti-Fas (#4233; Cell Signaling), anti-phospho-histone H2A.X (Ser139) (#2577; Cell Signaling), anti-histone H2A.X (#7631; Cell Signaling), anti-phospho-ATM (pS1981; EPITOMICS Inc.; Burlingame, Calif.), anti-ATM (#A1106; Sigma), and anti-α-tubulin (EMD Biosciences; San Diego, Calif.). After multiple TBST washes (1×TBS, 0.1% Tween-20), membranes were incubated with corresponding horseradish peroxidase-conjugated secondary antibodies (Bio-Rad) for 1 hr at room temperature. Proteins were detected by the enhanced chemiluminescence method (SuperSignal West Pico substrate; Pierce; Rockford, Ill.). Quantitation of signal intensities was performed by densitometry on a Xerox scanner using NIH IMAGEJ software.

[4] = tested on: thymidylate synthase (TS) protein; assay: Immunoblot analysis of TS protein (free and ITC-bound), Odyssey quantitation; assay type: cell-based, human; details: RKO cells, ssiRNA 1 nM, 48 hr; for Free TS (%) / ITC-Bound TS (%): normalized to free TS protein in mock-transfected cells (LF2000) set to 100%, mean ± S.D., 6 experiments
Experimental: (§2) FIGS. 1A-B illustrate the effect of FdU incorporation in ssiRNA on TS protein expression. RKO cells were transfected with TS6 ssiRNAs (1 nM) containing various 3′-overhangs. After 6 hr, the medium was replaced. After an additional 48 hr, cells were harvested and processed for immunoblot and qPCR analysis as described in the Materials and Methods section. (A) Representative blot from 4 experiments. (B) All qPCR values represent the mean±S.D. from at least 3 separate experiments performed in triplicate. The normalized amount of TS mRNA from mock-transfected cells (LF2000) was set to 1.0 and all other values compared against that value. ITC, inhibitory ternary complex;
Cells were plated at a density of 1.5×10^5 cells/well. On the following day, ssiRNAs were complexed with Lipofectamine 2000 (LF2000, Invitrogen) in serum-free RPMI-1640 medium and added to the plated cells. After 48 hr, cells were rinsed with PBS and scraped in cell lysis buffer (10 mM Tris pH7.4, 150 mM NaCl, 1 mM EDTA, 1% IGEPAL, 0.5% sodium deoxycholate, and 0.1% SDS) containing freshly added Protease Inhibitor Cocktail (Sigma; St. Louis, Mo.), 1 mM phenylmethylsulfonyl fluoride, and phosphatase inhibitors (Sigma). Lysates were sonicated and then centrifuged at 14,000 rpm for 30 min at 4° C. to remove debris. Cell lysates were stored at −80° C. for future use. For mRNA analysis, total RNA was extracted using Trizol (Invitrogen) and stored at −80° C. for future use.
as §1
Immunoblots were prepared as described above. After incubation with anti-TS polyclonal antibody, membranes were blocked with the Odyssey blocking buffer and incubated with IRDye 800CW goat anti-rabbit antibody (LI-COR Biosciences; Lincoln, Nebr., USA) according to the manufacturer instructions. The fluorescent signal was detected and quantified using the Odyssey infrared imaging system (LI-COR).

[5] = tested on: TS mRNA; assay: Real time qRT-PCR analysis of TS mRNA; assay type: cell-based, human; details: RKO cells, ssiRNA 1 nM, 48 hr
Experimental: as §2
Cells were plated at a density of 1.5×10^5 cells/well. […]
The first-strand cDNA was synthesized using 1.0 μg total RNA and the iScript™ Reverse Transcription Supermix for real-time quantitative polymerase chain reaction (qRT-PCR) (Bio-Rad; Hercules, Calif.). PCR was performed in triplicate using the SsoFast™ Probes Supermix (Bio-Rad) in a final reaction volume of 10 μL with gene-specific primer/probe sets, and a standard thermal cycling procedure (40 cycles) on a Bio-Rad CFX96™ Real-Time PCR System. mRNA levels of TS and 18S RNA were assessed using the TaqMan Gene Expression real-time PCR assays (Applied Biosystems; assay ID: Hs00426586_m1 and Hs03928990_g1, respectively). Results were expressed as the threshold cycle (Ct). […]

[6] = tested on: thymidylate synthase (TS) protein; assay: Immunoblot analysis of TS protein (free and ITC-bound), Odyssey quantitation; assay type: cell-based, human; details: RKO cells; for formation of the ITC immediately after transfection: ssiRNA 10 nM, 0 hr after 6 hr transfection
[7] = tested on: GC3/TK− cells; assay: Cell proliferation (WST-1) in thymidine kinase-deficient GC3/TK− cells; assay type: cell-based, human; details: 6 hr transfection, additional 5 days
Experimental: FIGS. 2A-B illustrate the effect of TK knockdown on the cytotoxicity of the FdU-modified ssiRNA. (A) RKO cells were transfected with 1 nM TK siRNA (lanes 3 and 4) or Mis-dU/dA (lane 5). After 6 hr, the medium was replaced with fresh medium. On the following day, cells were transfected with TS6-FdU/dA ssiRNA (1 nM) for 6 hr (lanes 2, 4, and 5) after which time, cells were harvested for immunoblot analysis. RKO cells were treated with 5-fluorouracil (5 nM) for 6 hr before harvesting (lane 6). (B) GC3/TK− cells were transfected with various concentrations of TS6-dU/dA or TS6-FdU/dA ssiRNA. After 6 hr, the medium was replaced and after an additional 5 days, cell proliferation was determined with the WST-1 assay;
The human colon cancer RKO cell line, originally obtained from ATCC, has been previously well-characterized and was maintained in RPMI-1640 (Invitrogen; Carlsbad, Calif.) with 10% (v/v) dialyzed fetal bovine serum at 37° C. in a humidified incubator with 5% CO2 (Reference 11). The thymidine kinase-deficient GC3/TK− cells were a gift from Dr. Janet Houghton (Reference 18). Cells were routinely authenticated by morphology and growth curve analysis. […]
RKO cells were plated in 96-well plates at a density of 800 cells/well. […] Cell proliferation/viability was quantified by the WST-1 assay (Roche; Indianapolis, Ind.).

[8] = tested on: RKO cells; assay: Flow cytometry, FITC Annexin V apoptosis detection; assay type: cell-based, human; details: ssiRNA 10 nM, after 72 hr
Experimental: FIGS. 6A-B illustrate induction of apoptosis after transfection of FdU-containing ssiRNAs. RKO cells were transfected with various TS6 ssiRNAs (10 nM). After 6 hr, the medium was replaced with fresh medium. After 72 hr, cells were harvested, fixed, stained, and analyzed by flow cytometry as described in the Materials and Methods section. (A) Representative cytometry images from one experiment. Lower left quadrant represents viable cells; lower right quadrant, early apoptotic cells; upper right quadrant, late apoptotic cells; upper left quadrant, necrotic cells. (B) Percentage values represent the mean±S.D. from 3 separate experiments.
RKO cells were plated in T-25 cm^2 flasks at a density of 2.5×10^5/flask. Cells were transfected on the following day with siRNA/LF2000 complexes for 6 hr. After medium replacement and additional incubation for 48 and 72 hr, respectively, cells were harvested, washed twice with PBS, resuspended in 1× binding buffer at a concentration of 1×10^6 cells/mL according to the manufacturer's protocol, stained with FITC Annexin V Apoptosis Detection Kit (BD Biosciences; San Jose, Calif.), and analyzed on the BD Accuri C6 Flow Cytometer (BD Accuri Cytometers Inc.; Ann Arbor, Mich.) at the UPCI Flow Cytometry Facility.

Substance	IC50 [1] [nM]	IC50 [2] [nM]	biomarkers of DNA damage, γH2AX and p-ATM [3]	effect on TS protein expression (in words) [4]	Free TS (%) [4] [%]	ITC-Bound TS (%) [4] [%]	effect on TS mRNA expression (in words) [5]	formation of the ITC immediately after transfection [6]	enhancement of IC50 versus non-targeted mismatch-FdU/dA, growth assay [1] [fold]	lower IC50 versus non-targeted mismatch-FdU/dA, clonogenic assay [2] [fold]	IC50 [7] [nM]	cleaved PARP, a marker of apoptosis [3]	p53 levels [3]	early and late apoptotic cells [8]	formation of the ITC after knockdown of thymidine kinase ([6]; TK siRNA 1 nM, next day TS6-FdU/dA 1 nM for 6 hr)
Mis-FdU/dA: control, non-targeted ssiRNA containing 5 FdU residues on the sense strand; SEQ ID NO: 21 and 22 (chain 1 GGAUACUGCCAAUCUCUAGGUUUUU; chain 2 CCUAGAGAUUGGCAGUAUCCAAAAA; chain 1: sugars from the 5' end r20 d5, [5FU] at 21, 22, 23, 24, 25, backbone not given here; chain 2: sugars from the 5' end r20 d5, backbone not given here)	2.88	1.75	little to no effect	absolutely no inhibitory effect	89.5 ± 26.2	45.6 ± 21.1	absolutely no inhibitory effect	formation of the ITC is observed	–	–	–	–	–	–	–
TS6-FdU/dA: TS-targeted ssiRNA, all 3′-end overhang dU of sense strand replaced with FdU (5 FdU); SEQ ID NO: 9 and 10 (chain 1 GGAUAUUGUCAGUCUUUAGGUUUUU; chain 2 CCUAAAGACUGACAAUAUCCAAAAA; chain 1: sugars from the 5' end r20 d5, [5FU] at 21, 22, 23, 24, 25, backbone not given here; chain 2: sugars from the 5' end r20 d5, backbone not given here)	0.81	0.17	strongly induced	–	29.8 ± 12.0	22.0 ± 11.8	–	formation of the ITC is observed	3.5	10	45.9 ± 18.6	elevated	rapidly induced	significant increase	prevented formation of the ITC
